Source: publication PMC9250534, “Synthesis and direct assay of large macrocycle diversities by combinatorial late-stage modification at picomole scale” (Nature Communications, 2022)
One block for each compound: values may come before it. Numbered stars: 1 amine (or outer) side, 2 acyl side, 3 side chain; on linkers, the order of the positions; unused ones are H or OH. Bridge positions count the residues as written; N and C are the ends. Square brackets hold non-standard residues; d marks the D form. Peptide text beside a SMILES is read from it. * marks the point of attachment. Pyrazinecarbonyl = O=C(c1cnccn1)*; Cysteamide = C(CS[*:3])N[*:1]; Orn = NCCC[C@H](N)C(=O)O; Bz = O=C(c1ccccc1)*; Mpa = O=C(O)CCS

Molecular target: T1, thrombin (Homo sapiens, UniProt P00734)
T1 construct: consists of two polypeptide chains of 36 (light chain) and 259 amino acid
Assay: Thrombin inhibition screen of crude macrocycle reactions (residual thrombin activity, fluorogenic substrate Z-Gly-Gly-Arg-AMC)
Format: biochemical
Conditions: 10 µM macrocycle concentration; for % thrombin activity, Original screen / % thrombin activity, Repeat screen: macrocycles containing acid 14, crude reaction; for % thrombin activity, Repeat screen: replicate reaction and screen; for percent residual thrombin activity: crude reactions, Library 1a-l, scaffold AA1-AA2-AA3 combined with 1-16 or '-'
Method in brief: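 Residual activity was measured as the AMC release rate after adding 50 μM Z-Gly-Gly-Arg-AMC. This followed a 10-min room-temperature preincubation of 2 nM thrombin with 10 μM single macrocycles in pH 7.4 Tris buffer (0.6% DMSO). Percent inhibition was taken against the mean slope of DMSO controls.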

Structure (SMILES): O=C(NCCC[C@@H]1NC(=O)[C@H](CO)NC(=O)[C@@H]2CCCN2C(=O)CCSSCCNC1=O)c1ccccc1 [B1-s-D2/1] ([Mpa]PS[Orn](Bz)-Cysteamide; disulfide 1-C)
- percent residual thrombin activity: 108.892%

Structure (SMILES): O=C1CCSSCCNC(=O)[C@H](Cc2ccc(O)cc2)NC(=O)C2(CC2)CNC(=O)[C@H](CNC(=O)c2ccc(Cl)s2)N1 [X D3 B6 Y]
- % thrombin activity, Original screen: 70.6%
- % thrombin activity, Repeat screen: 70.5%

Structure (SMILES): CC(C)C[C@@H]1NC(=O)CCSSCCNC(=O)[C@H](CCCCNC(=O)c2c[nH]c(=O)cn2)NC(=O)C2(CC2)CNC1=O [L-B6-D1/9]
- percent residual thrombin activity: 98.21%

Structure (SMILES): C[C@H]1NC(=O)CCSSCCNC(=O)[C@H]2CCCN(C2)C(=O)[C@H](CCCCNC(=O)c2c[nH]c(=O)cn2)NC1=O [a-D1-B4/9]
- percent residual thrombin activity: 108.338%

Structure (SMILES): O=C(NCCCC[C@@H]1NC(=O)[C@@H](Cc2c[nH]c3ccccc23)NC(=O)[C@H]2CCCN(C2)C(=O)CCSSCCNC1=O)c1c[nH]c(=O)cn1 [B4-w-D1/9]
- percent residual thrombin activity: 111.618%

Structure (SMILES): O=C1CCNC(=O)[C@@H](CO)NC(=O)CCSSCCNC(=O)[C@H](CCCCNC(=O)c2c[nH]c(=O)[nH]c2=O)N1 [s-B2-D1/11]
- percent residual thrombin activity: 113.521%

Structure (SMILES): CC[C@H](C)[C@@H]1NC(=O)CNC(=O)CCNC(=O)[C@@H](NC(=O)c2ccc(Cl)s2)CSSCCNC1=O [C B2 G I]
- % thrombin activity, Original screen: 110.0%
- % thrombin activity, Repeat screen: 114.7%

Structure (SMILES): NC(=O)CC[C@@H]1NC(=O)[C@H]2CCCN(C2)C(=O)CCSSCCNC(=O)C2(CCN(C(=O)c3ccc(Cl)s3)CC2)NC1=O [X B4 Q D6]
- % thrombin activity, Original screen: 93.8%
- % thrombin activity, Repeat screen: 99.5%

Structure (SMILES): CC[C@H](C)[C@@H]1NC(=O)CCSSCCNC(=O)[C@H]2CCCN(C2)C(=O)[C@H](CCCCNC(=O)c2cnccn2)NC1=O [I-D1-B4/2]
- percent residual thrombin activity: 114.834%

Structure (SMILES): C[C@H]1NC(=O)CCSSCCNC(=O)[C@H](CCCCNC(=O)c2cnccn2)NC(=O)[C@@H]2CCCN2C1=O [a-B1-D1/2] ([Mpa][dA]PK(Pyrazinecarbonyl)-Cysteamide; disulfide 1-C)
- percent residual thrombin activity: 113.236%

Structure (SMILES): O=C1CCSSCCNC(=O)[C@H](Cc2c[nH]cn2)NC(=O)C2(CC2)CNC(=O)C2(CCN(C(=O)c3ccc(Cl)s3)CC2)N1 [X D6 B6 H]
- % thrombin activity, Original screen: 96.8%
- % thrombin activity, Repeat screen: 96.5%

Structure (SMILES): NC(=O)CCC1NC(=O)CCNC(=O)C(CNC(=O)c2ccc(Cl)s2)NC(=O)CCSSCCNC1=O (stereo not shown) [X D3 B2 Q]
- % thrombin activity, Original screen: 91.4%
- % thrombin activity, Repeat screen: 92.1%

Continued, values first:

- % thrombin activity, Original screen: 97.6%
- % thrombin activity, Repeat screen: 98.2%
Structure (SMILES): O=C1CCSSCCNC(=O)C2(CC2)CNC(=O)[C@H](CO)NC(=O)[C@H](CCCCNC(=O)c2ccc(Cl)s2)N1 [X D1 S B6]

- percent residual thrombin activity: 102.465%
Structure (SMILES): CC[C@H](C)[C@@H]1NC(=O)[C@H](CCCNC(=O)c2cc(C)on2)NC(=O)c2cccc(c2)CNC(=O)CCSSCCNC1=O [B5-D2-I/3]

- % thrombin activity, Original screen: 99.3%
- % thrombin activity, Repeat screen: 95.8%
Structure (SMILES): NC(=O)CC[C@@H]1NC(=O)C2(CC2)CNC(=O)CCSSCCNC(=O)[C@H](CCCNC(=O)c2ccc(Cl)s2)NC1=O [X B6 Q D2]

- percent residual thrombin activity: 111.94%
Structure (SMILES): O=C(Cc1c[nH]c2ccccc12)NCCC[C@@H]1NC(=O)c2ccc(cc2)CNC(=O)[C@H](CO)NC(=O)CCSSCCNC1=O [S-B3-D2/12]

- % thrombin activity, Original screen: 96.4%
- % thrombin activity, Repeat screen: 100.5%
Structure (SMILES): O=C1CCSSCCNC(=O)C(CCCCNC(=O)c2ccc(Cl)s2)NC(=O)C(CO)NC(=O)c2cccc(c2)CN1 (stereo not shown) [X B5 S D1]
